Laboratory results from ChEMBL document CHEMBL5465560, “Selectivity Literature for EUbOPEN Chemogenomic Library” (2024).

Tests used:
[1] = target: T1, Serine/threonine-protein kinase ULK1 (Homo sapiens) (UniProt O75385); experiment: Selectivity interaction (Kinase panel (DSF assay)) EUB0001559a ULK1
T1 sequence (whole entry): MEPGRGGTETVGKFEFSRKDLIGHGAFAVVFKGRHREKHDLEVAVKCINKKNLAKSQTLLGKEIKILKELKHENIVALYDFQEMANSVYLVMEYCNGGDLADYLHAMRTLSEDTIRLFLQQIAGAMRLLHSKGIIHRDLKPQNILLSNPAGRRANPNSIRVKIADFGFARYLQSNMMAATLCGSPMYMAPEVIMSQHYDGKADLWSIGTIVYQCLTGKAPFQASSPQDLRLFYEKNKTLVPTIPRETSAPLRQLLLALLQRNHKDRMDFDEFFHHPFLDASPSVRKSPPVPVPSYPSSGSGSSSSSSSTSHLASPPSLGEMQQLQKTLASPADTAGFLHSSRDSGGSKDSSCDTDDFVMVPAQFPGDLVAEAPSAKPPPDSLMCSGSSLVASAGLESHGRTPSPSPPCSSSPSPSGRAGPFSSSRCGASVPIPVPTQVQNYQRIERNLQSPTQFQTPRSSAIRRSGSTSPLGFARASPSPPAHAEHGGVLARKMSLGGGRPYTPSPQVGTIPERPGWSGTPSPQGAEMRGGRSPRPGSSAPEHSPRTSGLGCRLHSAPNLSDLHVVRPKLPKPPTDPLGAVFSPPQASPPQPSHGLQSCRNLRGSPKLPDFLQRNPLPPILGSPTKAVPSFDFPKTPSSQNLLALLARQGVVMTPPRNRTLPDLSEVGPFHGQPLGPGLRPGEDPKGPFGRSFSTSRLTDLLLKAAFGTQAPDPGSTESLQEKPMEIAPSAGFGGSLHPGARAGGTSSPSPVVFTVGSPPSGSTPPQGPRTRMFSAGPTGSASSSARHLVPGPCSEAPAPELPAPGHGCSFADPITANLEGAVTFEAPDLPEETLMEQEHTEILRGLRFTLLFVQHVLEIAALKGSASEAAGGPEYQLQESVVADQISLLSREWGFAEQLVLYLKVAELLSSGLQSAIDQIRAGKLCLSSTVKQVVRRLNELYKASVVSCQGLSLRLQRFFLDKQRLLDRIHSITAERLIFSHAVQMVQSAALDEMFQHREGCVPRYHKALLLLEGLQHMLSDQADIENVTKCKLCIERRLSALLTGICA

[2] = target: Phosphatidylinositol 4,5-bisphosphate 3-kinase catalytic subunit beta isoform (Homo sapiens) (UniProt P42338); experiment: Selectivity interaction (ActivX KiNativ screen (kinase selectivity in THP-1 cell lysates)) EUB0000639a PIK3CB; format: subcellular; details: lysate
[3] = target: T2, Cytoplasmic tyrosine-protein kinase BMX (Homo sapiens) (UniProt P51813); experiment: Selectivity interaction (KinomeScan (DiscoverX)) EUB0001619a BMX; details: at 1 µM
T2 sequence (whole entry): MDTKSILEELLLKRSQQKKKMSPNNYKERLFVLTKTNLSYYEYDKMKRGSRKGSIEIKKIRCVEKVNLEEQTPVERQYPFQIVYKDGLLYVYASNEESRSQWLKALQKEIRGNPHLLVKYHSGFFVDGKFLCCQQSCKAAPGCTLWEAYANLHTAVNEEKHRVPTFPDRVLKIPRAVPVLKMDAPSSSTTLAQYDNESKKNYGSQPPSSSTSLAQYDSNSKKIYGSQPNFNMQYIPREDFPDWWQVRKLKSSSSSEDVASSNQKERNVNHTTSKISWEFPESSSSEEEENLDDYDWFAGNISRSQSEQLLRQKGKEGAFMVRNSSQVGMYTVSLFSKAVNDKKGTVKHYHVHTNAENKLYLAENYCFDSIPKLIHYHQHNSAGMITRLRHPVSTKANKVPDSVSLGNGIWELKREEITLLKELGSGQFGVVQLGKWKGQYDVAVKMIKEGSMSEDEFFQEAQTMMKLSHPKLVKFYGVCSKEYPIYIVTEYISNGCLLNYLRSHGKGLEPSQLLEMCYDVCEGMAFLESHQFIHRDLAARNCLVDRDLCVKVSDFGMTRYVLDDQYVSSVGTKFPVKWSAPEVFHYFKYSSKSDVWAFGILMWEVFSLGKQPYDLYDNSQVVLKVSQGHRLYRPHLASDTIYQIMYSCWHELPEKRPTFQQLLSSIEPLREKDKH

[4] = target: Mitogen-activated protein kinase kinase kinase 1 (Homo sapiens, UniProt Q13233); experiment: Selectivity interaction (KinomeScan (DiscoverX)) EUB0001619a MAP3K1; details: at 1 µM
[5] = target: Homeodomain-interacting protein kinase 1 (Homo sapiens, UniProt Q86Z02); experiment: Selectivity interaction (SelectScreen profiling (Invitrogen)) EUB0000607a HIPK1; details: at 2 µM
[6] = target: T3, Ephrin type-A receptor 3 (Homo sapiens) (UniProt P29320); experiment: Selectivity interaction (ProQinase) EUB0000171b EPHA3
T3 sequence (whole entry): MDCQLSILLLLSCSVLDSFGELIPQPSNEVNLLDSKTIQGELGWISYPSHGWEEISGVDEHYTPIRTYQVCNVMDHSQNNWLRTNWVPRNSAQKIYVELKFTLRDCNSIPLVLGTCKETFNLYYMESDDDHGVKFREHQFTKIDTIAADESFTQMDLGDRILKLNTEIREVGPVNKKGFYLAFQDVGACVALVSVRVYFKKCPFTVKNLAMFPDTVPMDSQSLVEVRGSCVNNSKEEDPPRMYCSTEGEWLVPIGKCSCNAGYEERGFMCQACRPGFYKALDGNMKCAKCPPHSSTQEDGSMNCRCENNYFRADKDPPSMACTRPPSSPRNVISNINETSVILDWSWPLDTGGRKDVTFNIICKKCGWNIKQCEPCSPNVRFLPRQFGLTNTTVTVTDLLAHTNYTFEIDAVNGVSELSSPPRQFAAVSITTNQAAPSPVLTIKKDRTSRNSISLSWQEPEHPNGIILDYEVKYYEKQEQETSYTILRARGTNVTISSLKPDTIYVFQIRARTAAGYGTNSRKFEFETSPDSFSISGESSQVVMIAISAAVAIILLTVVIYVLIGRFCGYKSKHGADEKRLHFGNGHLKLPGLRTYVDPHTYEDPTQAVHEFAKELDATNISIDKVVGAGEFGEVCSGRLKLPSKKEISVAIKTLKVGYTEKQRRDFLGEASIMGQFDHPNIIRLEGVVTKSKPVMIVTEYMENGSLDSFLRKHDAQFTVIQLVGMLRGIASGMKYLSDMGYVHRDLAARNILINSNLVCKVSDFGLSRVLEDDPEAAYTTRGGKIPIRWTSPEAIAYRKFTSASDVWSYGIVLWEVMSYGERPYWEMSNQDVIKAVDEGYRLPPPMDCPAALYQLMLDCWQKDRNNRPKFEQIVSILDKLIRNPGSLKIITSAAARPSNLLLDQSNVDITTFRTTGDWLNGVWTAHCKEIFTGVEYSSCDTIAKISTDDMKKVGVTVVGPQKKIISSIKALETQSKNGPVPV

Chain of Phosphatidylinositol 4,5-bisphosphate 3-kinase catalytic subunit beta isoform (Homo sapiens) (P42338 whole entry, looked up, canonical isoform): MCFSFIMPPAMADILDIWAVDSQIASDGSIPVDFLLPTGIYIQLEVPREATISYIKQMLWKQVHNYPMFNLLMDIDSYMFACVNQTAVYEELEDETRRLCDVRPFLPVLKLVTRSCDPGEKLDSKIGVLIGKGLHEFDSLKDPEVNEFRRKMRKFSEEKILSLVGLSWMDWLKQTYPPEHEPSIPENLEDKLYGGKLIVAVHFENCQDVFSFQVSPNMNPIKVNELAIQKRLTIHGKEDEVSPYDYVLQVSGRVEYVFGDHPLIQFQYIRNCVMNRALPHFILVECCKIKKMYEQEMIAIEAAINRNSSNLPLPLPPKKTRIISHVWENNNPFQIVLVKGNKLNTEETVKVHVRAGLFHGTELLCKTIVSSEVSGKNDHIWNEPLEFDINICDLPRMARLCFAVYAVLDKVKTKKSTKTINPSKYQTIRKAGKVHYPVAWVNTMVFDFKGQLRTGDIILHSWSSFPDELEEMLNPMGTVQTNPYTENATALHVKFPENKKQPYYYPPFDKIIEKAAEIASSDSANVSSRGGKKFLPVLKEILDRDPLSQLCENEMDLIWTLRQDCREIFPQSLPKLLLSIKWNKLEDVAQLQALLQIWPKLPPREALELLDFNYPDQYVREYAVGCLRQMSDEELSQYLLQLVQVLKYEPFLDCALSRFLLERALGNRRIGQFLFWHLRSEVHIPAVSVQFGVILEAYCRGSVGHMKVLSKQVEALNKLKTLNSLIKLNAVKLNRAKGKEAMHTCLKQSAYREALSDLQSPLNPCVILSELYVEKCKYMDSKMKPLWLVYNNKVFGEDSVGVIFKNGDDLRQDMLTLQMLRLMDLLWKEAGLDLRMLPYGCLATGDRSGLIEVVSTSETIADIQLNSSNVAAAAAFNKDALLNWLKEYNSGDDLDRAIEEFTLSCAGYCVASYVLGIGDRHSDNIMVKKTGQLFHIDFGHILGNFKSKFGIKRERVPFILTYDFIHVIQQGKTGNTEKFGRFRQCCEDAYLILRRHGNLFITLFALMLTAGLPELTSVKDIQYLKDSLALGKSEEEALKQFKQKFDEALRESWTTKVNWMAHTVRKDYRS
Chain of Homeodomain-interacting protein kinase 1 (Q86Z02 whole entry, looked up): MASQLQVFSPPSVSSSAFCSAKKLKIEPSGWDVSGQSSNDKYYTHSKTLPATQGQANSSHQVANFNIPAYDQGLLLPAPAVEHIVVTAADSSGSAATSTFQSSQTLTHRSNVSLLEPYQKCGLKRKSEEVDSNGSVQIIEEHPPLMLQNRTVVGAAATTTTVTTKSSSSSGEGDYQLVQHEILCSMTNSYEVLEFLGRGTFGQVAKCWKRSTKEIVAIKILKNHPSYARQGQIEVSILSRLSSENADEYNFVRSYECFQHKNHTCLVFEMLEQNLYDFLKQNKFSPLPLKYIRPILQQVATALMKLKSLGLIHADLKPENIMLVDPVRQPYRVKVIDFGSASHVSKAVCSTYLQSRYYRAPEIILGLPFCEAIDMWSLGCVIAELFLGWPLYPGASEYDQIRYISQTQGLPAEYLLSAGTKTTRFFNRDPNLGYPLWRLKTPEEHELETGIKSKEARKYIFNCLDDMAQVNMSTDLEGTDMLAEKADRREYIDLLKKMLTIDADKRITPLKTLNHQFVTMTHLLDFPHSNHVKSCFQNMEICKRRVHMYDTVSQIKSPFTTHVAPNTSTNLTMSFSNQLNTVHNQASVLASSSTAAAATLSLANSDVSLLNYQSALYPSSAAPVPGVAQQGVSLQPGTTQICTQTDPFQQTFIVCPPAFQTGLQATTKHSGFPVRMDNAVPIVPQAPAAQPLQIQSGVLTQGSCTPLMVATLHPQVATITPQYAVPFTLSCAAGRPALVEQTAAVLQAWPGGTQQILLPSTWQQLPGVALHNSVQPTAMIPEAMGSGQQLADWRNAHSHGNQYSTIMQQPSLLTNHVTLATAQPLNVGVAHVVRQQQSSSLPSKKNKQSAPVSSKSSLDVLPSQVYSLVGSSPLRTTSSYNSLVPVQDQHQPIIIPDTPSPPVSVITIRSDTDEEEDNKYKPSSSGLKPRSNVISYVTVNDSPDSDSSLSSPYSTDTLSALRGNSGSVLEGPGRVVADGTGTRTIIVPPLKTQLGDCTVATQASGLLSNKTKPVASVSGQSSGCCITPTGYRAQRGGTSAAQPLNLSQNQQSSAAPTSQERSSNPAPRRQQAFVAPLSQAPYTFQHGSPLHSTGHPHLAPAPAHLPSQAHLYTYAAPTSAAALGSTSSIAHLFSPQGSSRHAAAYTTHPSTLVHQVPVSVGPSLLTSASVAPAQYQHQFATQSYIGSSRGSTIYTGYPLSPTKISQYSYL
Chain of Mitogen-activated protein kinase kinase kinase 1 (Q13233 whole entry): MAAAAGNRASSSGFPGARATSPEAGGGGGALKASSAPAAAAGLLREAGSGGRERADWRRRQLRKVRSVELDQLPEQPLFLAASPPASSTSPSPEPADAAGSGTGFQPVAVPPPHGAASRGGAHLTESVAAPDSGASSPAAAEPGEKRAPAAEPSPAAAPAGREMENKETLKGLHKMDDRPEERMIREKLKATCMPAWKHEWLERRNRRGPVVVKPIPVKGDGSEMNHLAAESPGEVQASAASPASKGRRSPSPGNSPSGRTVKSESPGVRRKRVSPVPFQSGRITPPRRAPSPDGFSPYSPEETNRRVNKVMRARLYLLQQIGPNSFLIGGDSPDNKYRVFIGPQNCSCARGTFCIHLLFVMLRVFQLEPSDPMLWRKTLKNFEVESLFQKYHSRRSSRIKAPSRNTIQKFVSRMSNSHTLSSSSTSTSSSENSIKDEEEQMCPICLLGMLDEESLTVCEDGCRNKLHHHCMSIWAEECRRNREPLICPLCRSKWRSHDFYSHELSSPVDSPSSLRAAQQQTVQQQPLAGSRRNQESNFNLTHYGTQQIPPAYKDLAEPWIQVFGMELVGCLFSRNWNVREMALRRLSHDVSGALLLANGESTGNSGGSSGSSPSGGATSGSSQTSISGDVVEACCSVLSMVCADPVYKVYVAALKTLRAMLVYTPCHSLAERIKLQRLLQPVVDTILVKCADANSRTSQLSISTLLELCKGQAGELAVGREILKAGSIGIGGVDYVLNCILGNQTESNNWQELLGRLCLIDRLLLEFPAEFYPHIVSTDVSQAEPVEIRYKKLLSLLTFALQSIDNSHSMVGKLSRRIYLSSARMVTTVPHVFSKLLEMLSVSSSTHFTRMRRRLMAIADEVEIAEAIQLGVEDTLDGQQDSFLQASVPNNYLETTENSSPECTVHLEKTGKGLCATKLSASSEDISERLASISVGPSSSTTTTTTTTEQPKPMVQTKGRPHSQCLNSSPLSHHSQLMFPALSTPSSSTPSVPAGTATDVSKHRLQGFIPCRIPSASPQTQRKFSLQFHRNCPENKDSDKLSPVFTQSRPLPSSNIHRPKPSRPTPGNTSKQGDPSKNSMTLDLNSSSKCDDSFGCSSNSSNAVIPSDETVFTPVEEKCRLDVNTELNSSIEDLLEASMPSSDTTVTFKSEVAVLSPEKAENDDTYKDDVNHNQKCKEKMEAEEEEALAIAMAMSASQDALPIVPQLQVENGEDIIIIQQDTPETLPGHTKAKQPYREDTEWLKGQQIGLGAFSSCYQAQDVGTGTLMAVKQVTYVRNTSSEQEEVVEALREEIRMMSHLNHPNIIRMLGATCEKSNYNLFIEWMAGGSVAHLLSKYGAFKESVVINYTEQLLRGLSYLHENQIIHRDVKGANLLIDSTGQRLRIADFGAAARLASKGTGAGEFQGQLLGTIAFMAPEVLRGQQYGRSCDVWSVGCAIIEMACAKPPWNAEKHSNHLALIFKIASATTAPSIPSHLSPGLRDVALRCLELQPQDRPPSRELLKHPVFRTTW

For `CN(C(=O)c1cnn2cccnc12)c1cc2c(cc1N1CCOCC1)C(=O)N(C[C@@H](F)C(C)(C)O)C2`, which dTM [1] is on record?
The dTM was -1 K.

How did the % of inhibition ([2]; at 0.01 µM) turn out when `CC[C@@H]1[C@H](F)C(=O)N[C@@H]1COc1nccc2cc(C(N)=O)c(OC)cc12` [ZIMLOVISERTIB] was run?
Its % of inhibition is -2.4%.

What about the % of inhibition ([2]; at 0.04 µM) of the same compound?
The % of inhibition was 1.2%.

And the % of inhibition ([2]; at 0.2 µM)?
Its % of inhibition is -29.5%.

And the % of inhibition ([2]; at 1 µM)?
Its % of inhibition is -29%.

What about the % of inhibition ([2]; at 5 µM) of the same compound?
Its % of inhibition is 14.7%.

`N#Cc1cccc(-c2c[nH]c3ncnc(N4CCOCC4)c23)c1` was tested. Which % of control [3] did it give?
The % of control was 97%.

And the % of control [4]?
Its % of control is 82%.

`CNC(=O)Nc1ccc(-c2nc(N3CC4CCC(C3)O4)c3cnn(C4CCC5(CC4)OCCO5)c3n2)cc1` was tested. Which % of inhibition [5] did it give?
The % of inhibition was 1%.

`C=CC(=O)Nc1cccc(C(=O)Nc2ccc(Nc3cc(-c4[nH]c(SC)nc4C)ccn3)cc2)c1` was tested. Which % of control ([6]; at 1 µM) did it give?
Its % of control is 98%.

What about the % of control ([6]; at 5 µM) of the same compound?
The % of control was 89%.
